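GI50: concentration for 50% inhibition of growth. TGI denotes the concentration required for complete inhibition of growth.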
Tests used:
Assay in all cases: NCI-60 cell line screen, 384-well format
HCC-2998 colon = system: HCC-2998 colon
MOLT-4 leukemia = system: MOLT-4 leukemia
OVCAR-3 ovarian = system: OVCAR-3 ovarian
HOP-62 NSCLC = system: HOP-62 NSCLC
M14 melanoma = system: M14 melanoma
SW-620 colon = system: SW-620 colon
HOP-92 NSCLC = system: HOP-92 NSCLC
IGROV1 ovarian = system: IGROV1 ovarian
MALME-3M melanoma = system: MALME-3M melanoma
RXF 393 renal = system: RXF 393 renal
SNB-75 CNS = system: SNB-75 CNS
PC-3 prostate = system: PC-3 prostate
COLO 205 colon = system: COLO 205 colon
NCI/ADR-RES ovarian = system: NCI/ADR-RES ovarian
OVCAR-4 ovarian = system: OVCAR-4 ovarian
SNB-19 CNS = system: SNB-19 CNS
K-562 leukemia = system: K-562 leukemia
CAKI-1 renal = system: CAKI-1 renal
OVCAR-8 ovarian = system: OVCAR-8 ovarian
UACC-257 melanoma = system: UACC-257 melanoma
NCI-H460 NSCLC = system: NCI-H460 NSCLC
ACHN renal = system: ACHN renal
SN12C renal = system: SN12C renal
HL-60(TB) leukemia = system: HL-60(TB) leukemia
MCF7 breast = system: MCF7 breast
EKVX NSCLC = system: EKVX NSCLC
SF-268 CNS = system: SF-268 CNS
MDA-MB-435 melanoma = system: MDA-MB-435 melanoma
MDA-MB-468 breast = system: MDA-MB-468 breast

O=C1[C@H](Cc2ccc(O)cc2)N2C(=O)CCN(C(=O)NCc3ccccc3)[C@H]2CN1Cc1cccc2ccccc12
GI50 (HCC-2998 colon): 2.1 µM
TGI (HCC-2998 colon): 15.3 µM
GI50 (MOLT-4 leukemia): 0.319 µM
TGI (MOLT-4 leukemia): 1.19 µM
GI50 (OVCAR-3 ovarian): 0.632 µM
TGI (OVCAR-3 ovarian): 6.89 µM
GI50 (HOP-62 NSCLC): 2.99 µM
TGI (HOP-62 NSCLC): 11.9 µM
GI50 (M14 melanoma): 2.78 µM
TGI (M14 melanoma): 12.4 µM
GI50 (SW-620 colon): 7.63 µM
TGI (SW-620 colon): > 100 µM
GI50 (HOP-92 NSCLC): 0.386 µM
TGI (HOP-92 NSCLC): 1.88 µM
GI50 (IGROV1 ovarian): 0.353 µM
TGI (IGROV1 ovarian): 2.49 µM
GI50 (MALME-3M melanoma): 1.24 µM
TGI (MALME-3M melanoma): 5.89 µM
GI50 (RXF 393 renal): 3.22 µM
TGI (RXF 393 renal): 14.6 µM
GI50 (SNB-75 CNS): 0.421 µM
TGI (SNB-75 CNS): 2.23 µM
GI50 (PC-3 prostate): 1.74 µM
TGI (PC-3 prostate): 9.23 µM
GI50 (COLO 205 colon): 0.662 µM
TGI (COLO 205 colon): 10.2 µM
GI50 (NCI/ADR-RES ovarian): > 100 µM
TGI (NCI/ADR-RES ovarian): > 100 µM
GI50 (OVCAR-4 ovarian): 2.92 µM
TGI (OVCAR-4 ovarian): 17.2 µM
GI50 (SNB-19 CNS): 0.678 µM
TGI (SNB-19 CNS): 21.8 µM
GI50 (K-562 leukemia): 0.828 µM
TGI (K-562 leukemia): 14.1 µM
GI50 (CAKI-1 renal): 2.15 µM
TGI (CAKI-1 renal): 5.94 µM
GI50 (OVCAR-8 ovarian): 1.35 µM
TGI (OVCAR-8 ovarian): 11.9 µM
GI50 (UACC-257 melanoma): 3.45 µM
TGI (UACC-257 melanoma): 14 µM
GI50 (NCI-H460 NSCLC): 0.858 µM
TGI (NCI-H460 NSCLC): 5.2 µM
GI50 (ACHN renal): 10.7 µM
TGI (ACHN renal): 37.7 µM
GI50 (SN12C renal): 2.78 µM
TGI (SN12C renal): 16.8 µM
GI50 (HL-60(TB) leukemia): 3.98 µM
TGI (HL-60(TB) leukemia): 15 µM
GI50 (MCF7 breast): 5.44 µM
TGI (MCF7 breast): 20 µM
GI50 (EKVX NSCLC): 6.96 µM
TGI (EKVX NSCLC): 30.7 µM
GI50 (SF-268 CNS): 0.287 µM
TGI (SF-268 CNS): 0.792 µM
GI50 (MDA-MB-435 melanoma): 4.85 µM
TGI (MDA-MB-435 melanoma): 17.7 µM
GI50 (MDA-MB-468 breast): 3.46 µM
TGI (MDA-MB-468 breast): 15.6 µM

Source: PubChem BioAssay (NCI)
